Reference: patent US8173376B2, “Method for identifying compounds for treatment of pain” (Universite Laval, priority 2003, dated 2012)
“Also recorded” adds a separate entry of the source.

Legend:
KCC2 = assay: Immunoblot of spinal KCC2 protein after intrathecal oligodeoxynucleotide treatment; assay type: in vivo, rat; details: naïve rats, antisense 12 h or 36 h
Sprague-Dawley rats [1] = assay: Tactile/mechanical nociceptive withdrawal threshold (von Frey) after intrathecal delivery; assay type: in vivo, rat; details: for Nociceptive threshold for mechanical stimulation: intrathecal, 10 μg/day x 6 days
Sprague-Dawley rats [2] = assay: Thermal nociceptive withdrawal latency after intrathecal injection; assay type: in vivo, rat; details: intact naïve rats, DIOA 15-30 μg intrathecal
GlyRs and GABAARs = assay: Whole-cell recording of miniature postsynaptic currents (mPSCs) and GABA-evoked responses in LI neurons; assay type: cell-based, rat; details: LI neuron, p>0.5
lamina I (LI) neurons = assay: Calcium imaging (fura-2-AM) of GABA-evoked [Ca2+]i rise in lamina I neurons in spinal cord slices; assay type: cell-based, rat
lamina I neurons = assay: Anion reversal potential (Eanion) by gramicidin-D perforated-patch voltage-clamp recording in dorsal horn slices; assay type: cell-based, rat
Sprague-Dawley rats [3] = details: intrathecal, at the doses used
[4] = system: voltage sensitive Ca2+ channels (VSCCs) and NMDA receptor/channels; details: cited from earlier work; for Efficacy in the treatment of neuropathic pain: humans
[5] = lamina I neurons from naïve rats, 50 ng/ml in bath

## 5′-TCTCCTTGGGATTGCCGTCA-3′ (DNA, all phosphorothioate, methylation of C not given here) [KCC2 antisense oligodeoxynucleotide]
KCC2
  Spinal KCC2 protein levels (immunoblots): Decrease
Sprague-Dawley rats [1]; naïve rats, intrathecal antisense each 12 h (0 h, 12 h, 24 h), vs scrambled oligodeoxynucleotide
  Tactile nociceptive withdrawal threshold: significant decrease

## CCCCC1(C2CCCC2)Cc2cc(OCC(=O)O)c(Cl)c(Cl)c2C1=O (stereo not shown) [DIOA]
Sprague-Dawley rats [2]
  Nociceptive threshold to thermal stimuli (withdrawal latency): rapid and reversible decrease
Sprague-Dawley rats [1]; intact naïve rats, DIOA 15-30 μg intrathecal
  Nociceptive threshold to mechanical stimuli: rapid and reversible decrease
GlyRs and GABAARs; CsCl pipette, Eanion clamped at 0 mV, n=4 neurons x 50 mPSCs
  Effect on peak conductance of synaptic events (mPSCs): neither affected
GlyRs and GABAARs; n=5
  Effect on GABA-evoked responses: neither affected
Lamina I (LI) neurons; naïve rat spinal slices, bath applied DIOA 30 μM
  LI neurons showing an increase in [Ca2+]i on GABA application: 30%
Lamina I (LI) neurons; naïve rats, in the presence of DIOA, χ2 corrected=4.43
  Proportion of LI neurons displaying a GABA-evoked increase in [Ca2+]i (in words): significantly higher

## O=S(=O)(NCCNC/C=C/c1ccc(Br)cc1)c1cccc2cnccc12 [H-89]
Lamina I neurons; lamina I neurons from PNI rats, H-89 15 in bath
  Change of Eanion: significant hyperpolarization
Sprague-Dawley rats [1]; H-89 380 nmol local spinal delivery, vs vehicle
  Nociceptive threshold to mechanical stimulation: increase

## COC(=O)[C@@]1(O)C[C@H]2O[C@]1(C)n1c3ccccc3c3c4c(c5c6ccccc6n2c5c31)C(=O)NC4 [K-252a]
Lamina I neurons; lamina I neurons from PNI rats, K-252a 200 nM in bath
  Change of Eanion: hyperpolarization of the Eanion to a level similar to that observed in lamina I neurons taken from naïve rats; also recorded: significant hyperpolarization
Sprague-Dawley rats [3]
  Motor disturbances or sedation: did not produce any motor disturbances or sedation
Sprague-Dawley rats [1]; PNI rats, K-252a 6 nM intrathecal, vs vehicle
  Threshold for tactile nociceptive withdrawal: increase

## NCC1(CC(=O)O)CCCCC1 [gabapentin]
[4]
  Efficacy in the treatment of neuropathic pain: highly efficacious

## CNC1(c2ccccc2Cl)CCCCC1=O (stereo not shown) [ketamine]
[4]
  Efficacy in the treatment of neuropathic pain: highly efficacious
[4]; use of Ca2+ channel blockers / NMDA antagonists
  Side effects: many undesirable side effects

## NC1=N[C@H](O)[C@H]2[C@H]3O[C@]4(O)O[C@@H]([C@@H](O)[C@@]2(N1)[C@@H]4O)[C@]3(O)CO [tetrodotoxin]
Lamina I (LI) neurons
  Block of GABA-evoked [Ca2+]i responses: blocked

## KN-93
Lamina I neurons; lamina I neurons from PNI rats, KN-93 5 μM in bath
  Change of Eanion: significant hyperpolarization

## NGF: nerve growth factor, activator of TrkA, bath applied
Lamina I neurons; [5]
  Change of Eanion: significantly depolarized; also recorded: significant depolarization

## human recombinant NGF: human recombinant NGF for intrathecal delivery
Sprague-Dawley rats [1]; naïve rats
  Nociceptive threshold for mechanical stimulation: very similar decrease

B1: BDNF: brain-derived neurotrophic factor, activator of TrkB, bath applied (protein, UniProt P23560 19-247, looked up)
Neurotrophic factor BDNF …: APMKEANIRGQGGLAYPGVRTHGTLESVNGPKAGSRGLTSLADTFEHVIEELLDEDQKVRPNEENNKDADLYTSRVMLSSQVPLEPPLLFLLEEYKNYLDAANMSMRVRRHSDPARRGELSVCDSISEWVTAADKKTAVDMSGGTVTVLEKVPVSKGQLKQYFYETKCNPMGYTKEGCRGIDKRHWNSQCRTTQSYVRALTMDSKKRIGWRFIRIDTSCVCTLTIKRGR
Lamina I neurons; [5]
  Change of Eanion: significantly depolarized; also recorded: significant depolarization

B2: human recombinant BDNF: human recombinant BDNF for local spinal delivery (protein, UniProt P23560 19-247, looked up)
Neurotrophic factor BDNF …: APMKEANIRGQGGLAYPGVRTHGTLESVNGPKAGSRGLTSLADTFEHVIEELLDEDQKVRPNEENNKDADLYTSRVMLSSQVPLEPPLLFLLEEYKNYLDAANMSMRVRRHSDPARRGELSVCDSISEWVTAADKKTAVDMSGGTVTVLEKVPVSKGQLKQYFYETKCNPMGYTKEGCRGIDKRHWNSQCRTTQSYVRALTMDSKKRIGWRFIRIDTSCVCTLTIKRGR
Sprague-Dawley rats [1]; naïve rats
  Nociceptive threshold for mechanical stimulation: significant decrease
